The text below walks through data of patent US20230005594A1, “CLINICAL DECISION SUPPORT FOR PERSONALIZED ADAPTIVE PROSTATE CANCER THERAPY” (H. LEE MOFFITT CANCER CENTER AND RESEARCH INSTITUTE, INC., priority 2019, published 2023).

Molecules are shown by their SMILES. Several values for one entry are separate records, joined by “and”; a condition that tells them apart may be missing. Equal entries are not always repeated. Where two headings read alike, the source gives them in different places.

Experiment [1] deals with metastatic castration resistant prostate cancer (mCRPC). Particulars: cited from earlier work.
Another experiment has as its system castration-resistant PCa. The experiment in a line: Clinical trial of second-line intermittent AA therapy (NCT02415621). It is filed as in vivo, human. The source says: Prior theoretical, pre-clinical, and clinical studies have questioned the utilization of MTD treatment in non-curative settings. That is, continuous MTD treatment fails to consider the evolutionary dynamics of treatment presponse, where competition, adaptation and selection between treatment sensitive and resistant cells contribute to therapy failure. In fact, this strategy, by maximally selecting for resistant phenotypes and eliminating other competing populations, may actually accelerate the emergence of resistant populations—a well-studied evolutionary phenomenon termed “competitive release.” In part to address this issue, prior trials have used an intermittent on- and off-ADT (IADT) to reduce toxicity and delay time to progression (TTP). […]
Survival benefits have not been confirmed clinically, which can be due to the conservative trial designs of long on-treatment cycles (7-8 months) and short off-cycles. […] PSA values can be monitored every four weeks as done in the clinic. […] For Patient 36, relative PSA values of 50% or 90% of pre-treatment PSA levels as triggers to pause IADT and pre-treatment PSA levels to resume IADT yield longer TTP than the static triggers (PSA monitored every 4 weeks, IADT is paused if PSA<4 ng/mL for consecutive 36 weeks, and IADT resumes if PSA>10 ng/mL). […]

In a further experiment the test system is PCaSC. Particulars: cited from earlier work.
The test system of another experiment is advanced prostate cancer. Particulars: patients with advanced prostate cancer; cited from earlier work.
For another experiment, the system named is hormone-refractory PCa. Particulars: docetaxel added at end of ADT; cited from earlier work.
For experiment [2], the system named is metastatic, hormone-sensitive PCa. Particulars: cited from earlier work.
In a further experiment the test system is PCa. Particulars: cited from earlier work.
Where [3] appears, read: abiraterone plus gonadotropin-releasing hormone analog, AA-302 trial.
The mark [4] stands for this setting: docetaxel plus ADT, added at beginning of hormone therapy.

Take `CC(=O)O[C@H]1CC[C@@]2(C)C(=CC[C@@H]3[C@@H]2CC[C@]2(C)C(c4cccnc4)=CC[C@@H]32)C1` [abiraterone acetate]: in experiment [1] (setting [3]), the PSA response rate was 62% and the “median time to progression” value was 11.1 months. In experiment [1] (second-line hormone therapy), the “overall survival compared to prednisone or placebo” value was “prolong overall survival”. In the experiment with castration-resistant PCa (continuous MTD AA), the “median TTP” value worked out at 13 months. Besides, the “median TTP” value with castration-resistant PCa (intermittent AA therapy, median not reached) is reported as “at least 33 months”.
Take `CC(=O)O[C@@]12CO[C@@H]1C[C@H](O)[C@@]1(C)C(=O)[C@H](O)C3=C(C)[C@@H](OC(=O)[C@H](O)[C@@H](NC(=O)OC(C)(C)C)c4ccccc4)C[C@@](O)([C@@H](OC(=O)c4ccccc4)[C@H]21)C3(C)C` [docetaxel]: in the experiment on PCaSC, the “PCaSC docetaxel sensitivity as share of PCaC sensitivity” value was “about 25%”. Moreover, in the experiment on advanced prostate cancer, the Total tumor regression rate (δS+δC), median is 0.015 day⁻¹ and the Total tumor regression rate (δS+δC), range is 0.006 to 0.032 day⁻¹. Also, in the experiment with hormone-refractory PCa, the increase in survival is 2.4 months and the survival is 18.9 months. The survival benefit result in experiment [2] (CHAARTED trial, LVD patients) is “no statistically significant survival benefit”. Besides, the overall survival benefit entry in experiment [2] (CHAARTED trial, patients with HVD) is on record as “statistically significant overall survival benefit”. The “increase in overall survival” value in experiment [2] (GETUG-AFU15, high volume disease (HVD), DOC with continuous ADT, non-significant) is given as 20%. Moreover, the survival benefit entry in experiment [2] (GETUG-AFU15, low volume disease (LVD)) was “no survival benefit”. The overall survival benefit entry in experiment [2] (STAMPEDE trial, median follow-up of 43 months) is “more than 12 months”. Moreover, the “increase in overall survival time compared to ADT alone” value in the experiment on PCa (docetaxel added at beginning of long-term hormone therapy) is reported as 10-13 months. In the experiment on PCa (setting [4]), the TTP is 20.2 months; the overall survival time is 81 months and 57.6 months.
